{"source": "patent US7612071B2", "about": "“Compositions and methods employing aminopterin” (Syntrix Biosystems, Inc., priority 2004, dated 2009)", "key": {"[1]": {"details": "AMT 2 mg/m^2, adult patients, n=13, prior art; cited from earlier work"}, "[2]": {"test": "Mean intrapatient coefficient of variation of oral bioavailability", "format": "in vivo", "details": "human, plasma, 2 mg/m2; AMT 2 mg/m^2 PO, n=5", "text": "The term “intrapatient coefficient of variation of oral bioavailability” as used herein refers to the coefficient of variation of oral bioavailability of two or more antifolate doses given to the same patient. Specifically, it is the standard deviation of oral bioavailability of the two or more antifolate doses in the same patient divided by the intrapatient oral bioavailability, expressed as a percent.\nThe term “mean intrapatient coefficient of variation of oral bioavailability” as used herein refers to the average intrapatient coefficient of variation of oral bioavailability for two or more patients.\nThe intrapatient oral bioavailability and standard deviation of the oral bioavailability were determined among the consecutive doses in a given patient, and the intrapatient coefficient of variation of oral bioavailability calculated for each patient by dividing the standard deviation by the intrapatient oral bioavailability."}, "[3]": {"details": "prior art; cited from earlier work"}}, "data": [{"compound": "Nc1nc(N)c2nc(CNc3ccc(C(=O)N[C@@H](CCC(=O)O)C(=O)O)cc3)cnc2n1", "note": "[AMT]", "values": [{"measurement": "Interpatient oral bioavailability (%)", "setting": "[1]", "value": 85, "unit": "%"}, {"measurement": "Maximum (%) oral bioavailability", "setting": "[1]", "value": 163, "unit": "%"}, {"measurement": "Minimum (%) oral bioavailability", "setting": "[1]", "value": 32, "unit": "%"}, {"measurement": "Mean intrapatient coefficient of variation of oral bioavailability", "setting": "[2]", "value": 25, "unit": "%"}, {"measurement": "potency relative to methotrexate", "setting": "[3]", "value": "at least 10 times"}]}]}
